Test results as given in the NIST ThermoML archive (doi:10.1016/j.jct.2014.05.019).
± gives the expanded uncertainty stated by the source.

Test: refractive index (Na D-line) (dimensionless); xn = mol fraction of the nth substance listed
Conditions: 100 kPa, Liquid, Standard Abbe refractometry

NC(CO)C(=O)[O-].[Na+] (stereo not drawn) [sodium DL-serine] + O
refractive index
Conditions	303.15 K	308.15 K	313.15 K	318.15 K	323.15 K	328.15 K	333.15 K	338.15 K	343.15 K
x1 = 0.009	1.34216 ± 0.00031	1.34144 ± 0.00031	1.34066 ± 0.00031	1.33982 ± 0.00031	1.33894 ± 0.00031	1.33802 ± 0.00031	1.33706 ± 0.00031	1.33608 ± 0.00031	1.33505 ± 0.00031
x1 = 0.018	1.35202 ± 0.00031	1.35122 ± 0.00031	1.35038 ± 0.00031	1.3495 ± 0.00031	1.34861 ± 0.00031	1.34767 ± 0.00031	1.34667 ± 0.00031	1.34565 ± 0.00031	1.34458 ± 0.00031
x1 = 0.028	1.36168 ± 0.00031	1.36085 ± 0.00031	1.36 ± 0.00031	1.35908 ± 0.00031	1.35806 ± 0.00031	1.35706 ± 0.00031	1.35612 ± 0.00031	1.35511 ± 0.00031	1.35407 ± 0.00031
x1 = 0.037	1.37103 ± 0.00031	1.37015 ± 0.00031	1.36925 ± 0.00031	1.3683 ± 0.00031	1.36729 ± 0.00031	1.36632 ± 0.00031	1.36532 ± 0.00031	1.36426 ± 0.00031	1.36322 ± 0.00031
x1 = 0.048	1.38012 ± 0.00031	1.37921 ± 0.00031	1.37827 ± 0.00031	1.37725 ± 0.00031	1.37623 ± 0.00031	1.37526 ± 0.00031	1.37424 ± 0.00031	1.37311 ± 0.00031	1.37204 ± 0.00031
x1 = 0.059	1.38919 ± 0.00032	1.38826 ± 0.00032	1.38724 ± 0.00032	1.3862 ± 0.00032	1.38512 ± 0.00032	1.38406 ± 0.00032	1.38298 ± 0.00032	1.38194 ± 0.00032	1.38083 ± 0.00032
